According to ChEMBL document CHEMBL1201862, “PubChem BioAssay data set” (2004):
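Assay format: 96-well plates, 48-hour exposure. GI50 is the concentration that inhibits growth by half.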 The source made the active and inactive calls. Rule as the data show it: active = GI50 up to about 1.1 µM and inactive = higher.

Assays:
Experiment in all cases: growth of human tumour cells (NCI), 48 h
786-0 = test system: 786-0
A549 = test system: A549
CAKI-1 = test system: CAKI-1
CCRF-CEM = test system: CCRF-CEM
DU-145 = test system: DU-145
HCT-116 = test system: HCT-116
HCT-15 = test system: HCT-15
Hs-578T = test system: Hs-578T
IGROV-1 = test system: IGROV-1
KM12 = test system: KM12
NCI-H460 = test system: NCI-H460
OVCAR-3 = test system: OVCAR-3
RPMI-8226 = test system: RPMI-8226
SF-539 = test system: SF-539
SK-MEL-28 = test system: SK-MEL-28
SN12C = test system: SN12C
SNB-19 = test system: SNB-19
SW-620 = test system: SW-620
T47D = test system: T47D
UACC-62 = test system: UACC-62

| SMILES | GI50 (786-0) | GI50 (A549) | GI50 (CAKI-1) | GI50 (CCRF-CEM) | GI50 (DU-145) | GI50 (HCT-116) | GI50 (HCT-15) | GI50 (Hs-578T) | GI50 (IGROV-1) | GI50 (KM12) | GI50 (NCI-H460) | GI50 (OVCAR-3) | GI50 (RPMI-8226) | GI50 (SF-539) | GI50 (SK-MEL-28) | GI50 (SN12C) | GI50 (SNB-19) | GI50 (SW-620) | GI50 (T47D) | GI50 (UACC-62) |
| --- | --- | --- | --- | --- | --- | --- | --- | --- | --- | --- | --- | --- | --- | --- | --- | --- | --- | --- | --- | --- |
| CSc1ncnc2c1ncn2C1CC(Oc2ccc(C)cc2)C(COc2ccc(C)cc2)O1 (stereo not given) | > 100 µM (inactive) | > 100 µM (inactive) | 24.7 µM (inactive) | > 100 µM (inactive) | > 100 µM (inactive) | > 100 µM (inactive) | > 100 µM | > 100 µM (inactive) | > 100 µM (inactive) | > 100 µM (inactive) | > 100 µM (inactive) | > 100 µM (inactive) | 9.66 µM (inactive) | > 100 µM (inactive) | > 100 µM (inactive) | > 100 µM (inactive) | > 100 µM (inactive) | > 100 µM (inactive) | 16.6 µM (inactive) | > 100 µM (inactive) |
| O=C/C(=C(/Br)I)c1ccccc1 | 2.54 µM (inactive) | 22.9 µM (inactive) | 2.14 µM (inactive) | 0.248 µM (active) | 15.7 µM (inactive) | 1.51 µM (inactive) | 2.24 µM | 9.59 µM (inactive) | 4.41 µM (inactive) | 6.61 µM (inactive) | 8.99 µM (inactive) | 2.74 µM (inactive) | 2.25 µM (inactive) | 2.53 µM (inactive) | 1.63 µM (inactive) | 1.9 µM (inactive) | 13.6 µM (inactive) | 1.15 µM (inactive) | 1.86 µM (inactive) | 6.7 µM (inactive) |
| CCOC(=O)CCC(NC(=O)c1ccc(Nc2cnc3ccc(C(F)(F)F)cc3n2)cc1)C(=O)OCC (stereo not given) | 10.5 µM (inactive) | > 34.6 µM (inactive) | 12 µM (inactive) | > 100 µM (inactive) | > 26 µM (inactive) | 14.5 µM (inactive) | > 100 µM | 6.79 µM (inactive) | 10.9 µM (inactive) | 24.2 µM (inactive) | 8.02 µM (inactive) | > 100 µM (inactive) | > 22.4 µM (inactive) | 13.3 µM (inactive) | > 100 µM (inactive) | > 83.8 µM (inactive) | 13 µM (inactive) | > 70.6 µM (inactive) | 5.45 µM (inactive) | 20.6 µM (inactive) |
| N=c1oc2ccc(Cl)cc2cc1C(=O)Nc1ccccc1 | 10.7 µM (inactive) | > 100 µM (inactive) | 11.1 µM (inactive) | > 100 µM (inactive) | > 100 µM (inactive) | > 59 µM (inactive) | > 100 µM | 15.4 µM (inactive) | 26.1 µM (inactive) | 79.4 µM (inactive) | > 100 µM (inactive) | > 100 µM (inactive) | > 100 µM (inactive) | > 65.9 µM (inactive) | > 100 µM (inactive) | > 100 µM (inactive) | > 62.5 µM (inactive) | > 100 µM (inactive) | 17.3 µM (inactive) | > 100 µM (inactive) |
| N#Cc1c(O)nc2[nH]nc(/N=N\c3c(O)ccc4ccccc34)c2c1-c1ccc(Cl)cc1 | 0.0689 µM (active) | 0.312 µM (active) | 0.282 µM (active) | < 0.0371 µM (active) | 0.17 µM (active) | 0.114 µM (active) | 0.019 µM | 0.968 µM (active) | 0.286 µM (active) | 0.403 µM (active) | 0.0792 µM (active) | 0.0667 µM (active) | 1.56 µM (inactive) | 0.29 µM (active) | 0.311 µM (active) | 0.391 µM (active) | 0.211 µM (active) | 0.163 µM (active) | 0.173 µM (active) | 0.103 µM (active) |
| COCC12CCC(OC)C34C5CC6(O)C(OC)C=C(C5C6OC(=O)c5ccccc5)C(C(OC)C13)C4N(C)C2 (stereo not given) | > 100 µM (inactive) | > 100 µM (inactive) | > 100 µM (inactive) | > 100 µM (inactive) | > 100 µM (inactive) | > 100 µM (inactive) | > 100 µM | 27.1 µM (inactive) | > 100 µM (inactive) | > 100 µM (inactive) | > 100 µM (inactive) | > 100 µM (inactive) | > 100 µM (inactive) | > 100 µM (inactive) | > 100 µM (inactive) | > 100 µM (inactive) | > 100 µM (inactive) | > 100 µM (inactive) | > 100 µM (inactive) | > 100 µM (inactive) |
| COC(=O)C1=C(O)C(C(=O)OC)[C@]2(O)[C@H](C(=O)OC)[C@H]1C[C@@H](c1ccc(F)cc1)[C@H]2C(=O)OC (stereo not given in full) | 14.9 µM (inactive) | 19.3 µM (inactive) | 19.1 µM (inactive) | 6.85 µM (inactive) | 14.8 µM (inactive) | 7.19 µM (inactive) | 12.3 µM | 21.7 µM (inactive) | 18.8 µM (inactive) | 18.1 µM (inactive) | 17.4 µM (inactive) | 11.1 µM (inactive) | 16.2 µM (inactive) | 18.2 µM (inactive) | 14.2 µM (inactive) | 3.63 µM (inactive) | 19.1 µM (inactive) | 13.2 µM (inactive) | 22.6 µM (inactive) | 13.5 µM (inactive) |
